The subject of series [1] is USSR H1N1 virus. Briefly: microbe, parasite or virus in culture. Format: cell-based, influenza A virus.
Series [2] has as its system USSR H1N1 virus. The series is described as follows: microbe, parasite or virus in culture. Format: cell-based, influenza A virus. This is another data set of the same source.
In series [3] the test system is NPTr cells.
Series [4] has as its system extracellular Ca^2+ influx. The series is described as follows: Fluo-8 intracellular Ca2+ monitoring assay (NPTr cells; TG also in other cell types). The class given is cell-based, pig.
The subject of series [5] is NHBE cells. To be noted: TG concentrations used for priming.
A short description of series [6]: in vitro. To be noted: human.
Series [7] concerns RSV (A2 strain, ATCC VR-1540). The series is described as follows: RSV production from primed HEp2 cells (immuno-detection of RSV). Format: cell-based, human respiratory syncytial virus. On the procedure: (§1) Spun supernatants were collected to infect HEp2 cells for 24 h for immuno-detection of RSV. TG doses used to prime HEp2 cells were non-toxic. 30 min TG treated cells were rinsed, cultured overnight and subjected to cell viability assays (CellTiter-Glo® Luminescent Cell Viability Assay kit, Promega. Results are shown in FIG. 22.
Spun supernatants from infected samples were collected to infect HEp2 cells for 24 h for immuno-detection of RSV.
In further experiments, HEp2 cells were first infected with RSV at 0.1 MOI for 24 or 48 h followed by priming with TG or DMSO control for 30 min. Fresh media were used to replace TG containing media of 24 h infected cells; and supernatants collected earlier from 48 h infected cells were used to replace TG containing media of 48 h infected cells. All samples were infected for total period 72 h. Spun supernatants were collected to infect HEp2 cells for 24 h for RSV immuno-detection. DMSO controls were based on combined control supernatants from 24 and 48 h time points.

In series [8] the test system is influenza A virus. To be noted: MDCK cells, 0.001 μM TG over 48 h of infection; cited from earlier work.
Series [9] concerns USSR H1N1 virus. The class given is cell-based, influenza A virus.
For series [10], the system named is viral NP and M1 protein. Format: cell-based, influenza A virus. To be noted: 0.5 μM TG (NPTr, myoblasts) or 0.005 μM TG (NHBE) 30 min, USSR H1N1, 24 h.
The test system of series [11] is DDIT3, HSPA5 and HSP90B1. The class given is cell-based, pig. To be noted: NPTr cells.
Series [12] is described as follows: CellTiter-Glo luminescent cell viability assay, HEp2 cells. Format: cell-based. To be noted: human, HEp-2 cells. On the procedure:
as §1

The test system of series [13] is USSR H1N1 virus. The class given is cell-based, influenza A virus. This is another data set of the same source.
The test system of series [14] is RIG-I, OAS1 and PKR. The class given is cell-based, pig.
For series [15], the system named is pdm H1N1 virus. Format: cell-based, influenza A virus.
A short description of series [16]: in vitro. To be noted: pig.
Series [17] concerns viral M-gene. Format: cell-based, influenza A virus. To be noted: NPTr cells.

“Also recorded” adds a separate entry of the source. Like-named read-outs stand apart in the source and are kept apart here.

Here are results for 10 compounds from patent US20210145795A1 (priority 2018, published 2021).

For `CC1=C2CC[C@@H](C)[C@H]2[C@H]2[C@@H](CC1)C2(C)C` [(+)-ledene], the “USSR H1N1 virus production” value in series [1] is recorded as “reduced USSR H1N1 virus production like that of TG”. In series [2], the progeny virus output entry is reported as “dramatic reduction in progeny virus output; also recorded: reduced progeny virus output”.
For the compound `Cc1nnsc1C(=O)Nc1ccc(-n2nc(C(F)(F)F)cc2C(F)(F)F)cc1` [BTP2, reference compound], in [1], the progeny virus release entry is on record as “small increase in progeny virus release”.
With `CC(=O)C1=C(O)[C@@H]2[C@H]3c4c[nH]c5cccc(c45)C[C@H]3C(C)(C)N2C1=O` [CPA, Cyclopiazonic acid], the “reduction in ATP production” value in series [3] (5 μM CPA 30 min, 24 h incubation) was found to be 8.3%. In addition, in series [4], the “concentration from which Ca^2+ influx was detected” value was not below 10 µM.
For `COc1ccc(OC)c(-c2ccc(NC(=O)c3ccncc3F)cc2)c1` [Synta66, reference compound], the progeny virus release entry in series [1] was “small increase in progeny virus release”.
Regarding `C/C=C(/C)C(=O)O[C@H]1C(C)=C2[C@H]([C@@H]1OC(=O)CCCCCCC)[C@@](C)(OC(C)=O)C[C@H](OC(=O)CCC)[C@@]1(O)[C@H]2OC(=O)[C@@]1(C)O` [TG, thapsigargin], the “cytotoxic effect on cell viability (ATP production, caspase 3/7 activity)” value in series [5] is recorded as “no cytotoxic effect on cell viability”; in series [3] (NPTr cells, TG concentrations used for priming), “no cytotoxic effect on cell viability”. For the same compound, the CC50 in series [6] was determined as 33.5 µM; in [12] it was 90 µM; in [16], 56.6 µM. Further, the “duration of the antiviral state” value in series [1], in series [9] and in series [13] was “at least 24 h” in each case. Further, the virus output entry in series [1], in [2] and in [9] was “marked reduction in virus output” in each case. Besides, the IC50 was determined as 0.00712 µM in [1] (Influenza A virus, H1N1, read-out: IC50 (50% reduction of progeny virus)); 0.0668 µM in series [7] (human respiratory syncytial virus, 72 h, HEp-2 cells, 3 d infection period); 0.00391 µM in [2] (Influenza A virus, H1N1, NHBE, read-out: USSR virus inhibitory concentration [IC50]). The virus reduction in series [1] (NPTr cells pre-primed with 0.1 μM TG for 30 min) is on record as 82%; in series [1] (NPTr cells pre-primed with 0.5 μM TG for 30 min), 93%. For the same compound, the “selectivity index (CC50/IC50)” value in [1] (NPTr cells, USSR H1N1) came to 7952.21; in [2] (NHBE cells, USSR H1N1), 8572.89. For the same compound, the “duration of sustained anti-viral effect on RSV after priming” value in series [7] (HEp2 cells, 30 min priming) is listed as “over 48 h”. In addition, in series [7] (HEp2 cells, TG 30 min at 48 h post-infection), the “RSV production, priming during infection” value is on record as “rapidly effective in blocking virus production”. Besides, the RSV production entry in series [7] (HEp2 cells, TG at non-toxic levels 30 min before infection, RSV 0.1 MOI 3 days) was “blocks RSV production”. The selectivity index in series [7] (HEp-2 cells, 3 d infection period) worked out at 1346.499. Also, the progeny virus output result in series [2] (NHBE cells, 5 nM TG for 30 min) is recorded as “dramatic reduction in progeny virus output”. The “progeny influenza virus output” value in series [8] was “increase progeny influenza virus output”. Moreover, in series [10], the “viral NP and M1 protein” value is “no or only small reduction in viral NP and M1 protein”. The “expression of ER stress associated genes (DDIT3, HSPA5 and HSP90B1)” value in [11] (TG at non-toxic levels, porcine myoblasts and NHBE cells, dose-dependent) is recorded as “consistently elevated ER stress associated genes”. For the same compound, in [4] (brief TG exposure (10 min), primary porcine myoblasts, PTECs and NHBE cells, dependent on extracellular Ca^2+), the “Ca^2+ influx” value is “modest Ca^2+ influx”. The “expression of type I IFN associated genes (RIG-I, OAS1) in response to infection” value in [14] (TG priming before or during infection, different cell types) is “consistently increased the expression of type I IFN associated genes”. In addition, the “virus production, TG before vs after an initial infection period of 6 h” value in series [15] (NPTr (0.5 μM, pdm H1N1), NHBE (0.01 μM, USSR H1N1), myoblasts (0.5 μM, USSR H1N1), 30 min) is given as “comparable reduction in virus production”.
`C[C@@H]1CC[C@H]2[C@@H](C)C(=O)O[C@@H]3O[C@@]4(C)CC[C@@H]1[C@]32OO4` [artemisinin, reference compound]: in series [1], the “USSR H1N1 virus production” value is listed as “reduced USSR H1N1 virus production like that of TG” and the progeny viral output entry is given as “reduces progeny viral output”. For the same compound, the “viral M-gene expression” value in series [17] (artemisinin 0.1 μM and 1.0 μM) was “without significant alteration in viral M-gene expression”. In [15], the progeny viral output result is “reduces progeny viral output”.
Take `C=C1C(=O)O[C@@H]2[C@H]3C(C)=CC(=O)C3=C(C)CC[C@@H]12` [dehydroleucodine]: in series [2], the progeny virus output result is “reduced progeny virus output”.
In the case of `CC1=C2[C@H](/C=C(\C)C(=O)O)CC[C@@H](C)[C@H]2CC1` [valerenic acid], the “USSR H1N1 virus production” value in [1] is reported as “reduced USSR H1N1 virus production like that of TG”.
With Tunicamycin [reference compound], the cell viability entry in series [3] (NPTr cells, tunicamycin 30 min, non-toxic doses) was “did not affect cell viability”. The virus production entry in series [1] is listed as “only slightly reduced virus production”. Moreover, the “virus production relative to correspondingly infected TG primed cells” value in [1] (NPTr cells, USSR H1N1, tunicamycin primed vs TG 0.5 μM) is 7.5 times; in series [15] (NPTr cells, pdm H1N1, tunicamycin primed vs TG 0.5 μM), 2.8 times. Moreover, in series [11] (tunicamycin 1.0 μg/ml vs TG 0.5 μM), the “induction of ER stress associated genes, higher than by TG” value is listed as 3 to 8.2 fold. Also, the “Ca^2+ influx” value in [4] (tunicamycin at non-toxic doses) was “did not induce Ca^2+ influx”. Besides, the “viral M-gene expression” value in series [17] (tunicamycin primed) was “without reduction in viral M-gene expression”. In addition, the “expression of type I IFN associated genes (RIG-I, OAS1 and PKR) in response to infection” value in [14] (NPTr cells, tunicamycin primed) is reported as “little change in the expression of type I IFN associated genes”.
On to dehydroleucodine, for which the “USSR H1N1 virus production” value in series [1] was “reduced USSR H1N1 virus production like that of TG”.
